“Also recorded” adds a separate entry of the source. Where two headings read alike, the source gives them in different places.
What was measured:
[1] = WHO; cited from earlier work
[2] = system: rats; details: calculated from the literature, cited from earlier work
[3] = system: humans; details: cited from earlier work
[4] = system: rats; details: adult cycling rats, 10 μg/kg (Li et al. 1995a); cited from earlier work
[5] = human data; cited from earlier work
[6] = system: guinea pigs; details: p.o. (Schwetz et al. 1973); cited from earlier work
[7] = system: hamsters; details: hamsters (Eisler 1986); cited from earlier work
[8] = system: rats; details: cited from earlier work
[9] = system: CYP 1A1; test: In vitro ethoxyresorufin-O-deethylase (EROD) study in rat hepatoma cells; type: cell-based
Procedure: The induction of CYP 1A1 has been quantitatively measured in an cell-line study. The choice of EROD as an in vitro study was made based on its established procedure and speed. […] Its metabolic context is both, a strength and a weakness of the EROD assay. The greatest advantage of cell-based assays is the detection of the actual gene expression as compared to the study of interaction with DREs (Seidel et al. 2000).
The EROD-specific activity of TCPT declined over time, with its maximum at 24 h out of measurements after 24, 48 and 72 h. This indicates a comparatively rapid metabilization of TCPT by rat hepatoma cells.

[10] = system: rats; test: Observed interaction with anesthetics (pentobarbital)
[11] = system: Dunkin-Hartley guinea pigs; test: Effects on ovulation in guinea pigs; type: in vivo, guinea pig
Description: In the present invention, guinea pigs were chosen for this study for two reasons. First, they represent the species that is the most sensitive to TCDD. […] Dosing with gelatin capsules can be performed in this species without anesthesia, which is not possible in rats. This is an important factor, since anesthetics generally influence ovulation.
The guinea pigs were followed for at least two regular consecutive cycles (about 16 days each) before commencing with dosing and also after the administration of TCPT was terminated. Their cycles were tracked by observation of vaginal opening and vaginal smears. The day of ovulation, day 1, was defined as a leucocytic smear following a cornified smear. The animals were dosed for 9 consecutive days starting on day 9 of a highly regular normal cycle. This way, the dosing period overlapped with the relevant time-span for ovulation and regulation of the cycle length (Terranova & Greenwald 1981). The animals received dose rates of 2.5, 5, 10 and 20 mg/kg TCPT per day. One animal was pair-fed to an animal dosed with 20 mg/kg/day TCPT.

[12] = Acute toxicity, daily p.o. doses of TCPT in guinea pigs; details: female, Dunkin-Hartley, guinea pig, in vivo, po
Procedure: (§4) In this example, dose-range finding studies were performed with a small number of animals to accommodate the limited availability of TCPT.
(§5) Six adult male Dunkin-Hartley guinea pigs were given daily p.o. doses of TCPT. Due to its insolubility, TCPT was administered as a solid in size 9 gelatin capsules and dosing devices purchased from Torpack, Inc. (Fairfield, N.J.).
(§6) The experimental design of daily dosing accounted for the short half-life known from clinically used phenothiazines and the results of prior unpublished studies with 1,2,3,7,8,9-hexachlorophenothiazine.
(§7) This example first looked at daily p.o. administration to guinea pigs. Eleven guinea pigs received multiple doses of TCPT, with dosages ranging from 2.5 to 100 mg/kg/day.

[13] = system: Dunkin-Hartley guinea pigs; test: as above
Procedure: as §4, §5, §6, §7

[14] = Solubility and stability observations; type: physicochemical
[15] = Half-lives after intravenous dosage in guinea pigs; details: guinea pig, in vivo, 10 mg/kg, two guinea pigs, i.v. 10 mg/kg
Description: (§1) Studies on a limited number of animal have been conducted to determine the approximate half-life of TCPT.

[16] = Half-lives after intravenous dosage in rats; details: rat, in vivo
Description: as §1

[17] = Acute i.v. toxicity of TCPT in rats; type: in vivo, rat; details: female, Sprague-Dawley, rat, in vivo, iv; rats, i.v.; read-out: dose for the acute lethal toxicity (referred to as i.v. LD50)
Procedure: (§2) Animals dosed with 10 mg/kg became unconscious for 30 min, whereas in the 5 mg/kg dose group, the rats lost consciousness for 3 min only, likely representing the effects of acetone in this case.
(§3) Due to the unexpectedly rapid onset of death, no more detailed observations, e.g. on the heart rate, could be made.

[18] = system: Sprague-Dawley rats; test: Acute i.v. toxicity of TCPT in rats; type: in vivo, rat
Procedure: as §2, §3

[19] = system: guinea pig; test: Single intravenous administration of TCPT in guinea pigs; type: in vivo; details: single i.v. 10 mg/kg in acetone (0.5 ml/kg)
Procedure: During ovulation studies (see Example 4 below), an adult female was lost after having been dosed with 10 mg/kg/day for 9 consecutive days; the animal died on day 13.
In this example, the toxicity of TCPT was compared between each species. […] On the other hand, a female rat receiving i.v. 10 mg/kg was sedated within 30 minutes.

[20] = system: Dunkin-Hartley guinea pigs; test: Altering the regulation level for bodyweight in guinea pigs; type: in vivo, guinea pig
Procedure: In the present invention, guinea pigs were dosed for 9 consecutive days with 2.5, 5, 10 and 20 mg/kg/day TCPT, respectively. The observations presented here were made during another study which was not designed for comparative body weight analysis. […] In contrast to studies on TCDD, weight gain resumed 1-2 days after cessation, probably due to TCPT's shorter half-life and therefore more rapid elimination.

[21] = peroral solid TCPT 30 min prior to pentobarbital (55 mg/kg)
[22] = 20 mg/kg/day, 9 consecutive days

Clc1cc2c(cc1Cl)Oc1c(cc(Cl)c(Cl)c1Cl)O2 [PeCDD, 1,2,3,7,8-pentachlorodibenzo-p-dioxin]
TEF-value [1]: 1

Clc1cc2c(cc1Cl)Oc1cc(Cl)c(Cl)cc1O2 [TCDD, 2,3,7,8-Tetrachlorodibenzo-p-dioxin]
body burden below which weight gain resumed ([2]; 3 weeks after dosing): Below 5 μg/kg
body burden at which feed intake started rising again ([2]; after non-lethal dose of 15 μg/kg, after 11 days): 6.6 to 8 µg/kg
concentration below which most individuals do not show signs ([3]; humans (Williams & Wilkins 1992)): 11,000 ppt
dose corresponding to 11,000 ppt ([3]; humans (Young 1984)): about 100 μg/kg
concentration at which chloracne symptoms may occur ([3]; susceptible individuals, based on serum lipid content): 800 ppt
effect on cycle and ovulation [4]: prolonged diestrus stage
absorption [5]: > 86%
LD50 [6]: 0.0021 mg/kg
LD50 [7]: 1157−5051 μg/kg
TEF-value [1]: 1
LD50 ([8]; Han Wistar rats (Pohjanvirta et al.)): > 3 mg/kg
LD50 ([8]; Long-Evans rats (Pohjanvirta et al.)): 0.01 mg/kg
inter-strain difference in LD50 ([8]; between Long-Evans and Han Wistar rats): ~300 fold
LD50 ([8]; female rats (Schwetz et al. 1973)): 0.045 mg/kg
LD50 ([8]; male rats (Schwetz et al. 1973)): 0.022 mg/kg
i.v. LD50 ([8]; rats, i.v. (Schwetz et al. 1973)): 0.025 mg/kg

Clc1cc2c(cc1Cl)Sc1cc(Cl)c(Cl)cc1N2 [TCPT, 2,3,7,8-tetrachlorophenothiazine]
potency compared with TCDD (acute toxicity in animals and in vitro EROD-specific activity) [9]: three orders of magnitude less potent
time of maximum EROD-specific activity ([9]; measurements after 24, 48 and 72 h, declined over time): 24 h
efficacy, of the efficacy of TCDD, in vitro EROD-bioassay ([9]; rat hepatoma cells): 77%
mortality in anesthetized animals ([10]; i.v. 3 mg/kg, pentobarbital anesthesia): one animal dying out of three
effect in anesthetized animals ([10]; i.v. 5 mg/kg in acetone (1 ml/kg), pentobarbital 55 mg/kg): immediate respiratory arrest
fatalities [10, 21]: no fatalities
shortening of the onset of anesthesia [10, 21]: about 50%
breathing ([10]; rats, p.o. administration of various doses during pentobarbital-induced anesthesia): breathed very shallow and in long intervals
effect on cycle/ovulation ([11]; 10 mg/kg/day, 9 consecutive days): shortened period of vaginal opening
effect on ovulation [11, 22]: inhibited ovulation
vaginal opening [11, 22]: irregular vaginal opening
direct or endocrine effect on the ovaries ([11]; guinea pigs, conclusion of the experiment): no direct or endocrine effect on the ovaries
effect on cycle/ovulation ([11]; two lowest dose groups (2.5, 5 mg/kg per day), 9 consecutive days from day 9 of cycle): no effect
LD50 [12]: 25 to 50 mg/kg
day of death ([13]; adult female guinea pig, 10 mg/kg/day p.o. for 9 consecutive days): 13 days
Result ([13]; adult male guinea pig, animal 1, p.o. 25 mg/kg/d for 18 days): survived
Result ([13]; adult male guinea pig, animal 2, p.o. l00 mg/kg/d for 8 days): died
Result ([13]; adult male guinea pig, animal 3, p.o. 50, 10, 25, 50 mg/kg/d (dose-range finding) for 17 days): died
Result ([13]; adult male guinea pigs, animals 4-6, p.o. 27.5, 44, 50, 57, 67, 75 mg/kg/d for 13 days): survived
body weight ([13]; eleven guinea pigs, multiple p.o. doses 2.5 to 100 mg/kg/day): body weight loss
p.o. LD50 of TCPT relative to reported p.o. LD50 of TCDD ([13]; guinea pigs): roughly 10,000 times
autopsy finding ([13]; guinea pigs that died): loss of all adipose tissue
days of dosing until death ([13]; guinea pigs, p.o. 25-50 mg/kg/day): 8 to 11 days
dose for the acute lethal toxicity ([13]; guinea pigs, p.o., daily dosing): 25 to 50 mg/kg/day
difference in acute toxicity to TCDD ([13]; oral administration): 10^−4 fold
peroral potency compared with TCDD (wasting syndrome) ([13]; p.o. dosing): four orders of magnitude lower
tolerance ([13]; survivors of daily p.o. dosing): development of tolerance
stability in acetone [14]: decomposes in acetone
stability in acetone ([14]; listed as KWF3): degraded when kept in acetone for longer periods of time
solubility ([14]; any solvent): insolubility; also recorded: low solubility
half-life ([15]; read-out: half-life, distribution phase (converted)): 0.42 h
half-life ([15]; read-out: half-life, elimination phase (converted)): 2.71 h
half-life ([16]; 5 mg/kg, two rats, i.v. 5 mg/kg, read-out: half-life, distribution phase (converted)): 0.82 h
half-life ([16]; 5 mg/kg, two rats, i.v. 5 mg/kg, read-out: half-life, elimination phase (converted)): 5.42 h
half-life ([16]; 10 mg/kg, one rat, i.v. 10 mg/kg, read-out: half-life, distribution phase (converted)): 0.47 h
half-life ([16]; 10 mg/kg, one rat, i.v. 10 mg/kg, read-out: half-life, elimination phase (converted)): 2.25 h
LD50 [17]: 10 to 30 mg/kg
sedation ([18]; female rat, i.v. 10 mg/kg): ≤ 30 min
duration of lost consciousness ([18]; female rats, i.v. 5 mg/kg in acetone (1 ml/kg), likely effect of acetone): 3 min
duration of unconsciousness ([18]; female rats, i.v. 10 mg/kg in acetone (1 ml/kg)): 30 min
lethality ([18]; female rats, i.v. 30 mg/kg in acetone (1 ml/kg), 30 mg/kg): died within five seconds; also recorded: dropped dead within five seconds; also recorded: lethal dose
i.v. LD50 of TCPT relative to reported i.v. LD50 of TCDD ([18]; rats): roughly 1,000 times
observable effects [19]: no observable effect
set-point of bodyweight ([20]; all survivors): reduced set-point of bodyweight
bodyweight during the dosing period ([20]; guinea pigs, 2.5, 5, 10 and 20 mg/kg/day for 9 consecutive days): decrease in bodyweight
time until weight gain resumed after cessation ([20]; guinea pigs, after 9 days of dosing): 1 to 2 days
reduction of set-point for bodyweight ([20]; treated animal (20 mg/kg/day, 9 days), FIG. 2): 66 grams

Reference: patent US20050288279A1, “Phenothiazine derivatives and their method of use” (priority 2004, published 2005)
